Assay results: US20260294880A1, “COMPOSITION FOR TREATING OTOTOXIC HEARING LOSS CAUSED BY AMINOGLYCOSIDE ANTIBIOTICS” (KYUNGPOOK NATIONAL UNIVERSITY INDUSTRY-ACADEMIC COOPERATION …, priority 2023, published 2026)

Key:
Format in all cases: cell-based, ICR mice
[1] = tested on: IHCs and OHCs (cochlear hair cells); test: Quantification of surviving hair cells with V-shaped stereocilia in cochlear explants; settings: for IHC survival / cytotoxicity to IHC: 3 mM AK, 1.2 mM KM, 100 μM GM, no BC
Protocol: (§1) Three-day-old ICR (Institute for Cancer Research) mice were purchased from Hyochang Science (Daegu, South Korea) for […]. Dissected cochleae were cultured in high-glucose Dulbecco's Modified Eagle's Medium (DMEM; Hyclone, Logan, UT, USA) containing 10% fetal bovine serum (Hyclone) and ampicillin (10 μg/mL; Life Technologies, Carlsbad, CA, USA) at 37° C. in a humidified atmosphere in the presence of 5% CO2. After 16 hours of culture, cochleae were first treated with 0.1 μM or 1 μM BC for 1 hour, followed by addition of one of three aminoglycoside antibiotics (1.2 mM KM, 3 mM AK, or 100 μM GM) to the culture medium. BC concentrations were optimized for each aminoglycoside (0.1 μM for KM, 1 μM for AK and GM).
(§2) To evaluate the morphology of inner hair cells (IHCs) and outer hair cells (OHCs) of the organ of Corti, the specimens were cultured for 48 hours and fixed with 4% paraformaldehyde (PFA, pH 7.4) in PBS for 15 minutes. After washing three times with PBS, a stereociliary bundle of explants was stained with Alexa Fluor 488-or 555-conjugated phalloidin (1:1,000; Invitrogen-Molecular Probes, Eugene, OR) in PBS for 1 hour at room temperature (RT). Specimens were mounted on glass slides using Fluoromount (Sigma-Aldrich, St. Louis, MO) and visualized using an Axio Imager A2 fluorescence microscope (Carl Zeiss, Oberkochen, Germany).
[Example 5] Quantification of hair cells and statistical analysis For quantitative analysis of hair cell damage, IHCs and OHCs with intact v-shaped […] were individually counted along a 200 μm length of basilar membrane in the apical (30%), middle (50%), and basal (70%) regions of each cochlear probe. All experiments were performed independently at least three times.

[2] = tested on: mitochondrial membrane potential of cochlear hair cells; test: JC-1 assay of mitochondrial membrane potential in cochlear explants; settings: for red/green fluorescence ratio (mitochondrial membrane potential) after antibiotic treatment: KM, AK, or GM only
Protocol: as §1
The cationic fluorescent dye MitoProbe™ JC-1 (Invitrogen-Molecular Probes) was used to measure the mitochondrial membrane potential. After 30 hours of culture, the specimens were washed with PBS and stained with JC-1 (2 μM) for 2 hours at 37° C. in the presence of 5% CO2 in a darkroom. The sensitivity of the JC-1 assay was verified by adding 50 μM carbonyl [COMPOUND LEFT OUT] 3-chlorophenylhydrazone (CCCP) to untreated specimens before JC-1 staining, and then the specimens were cultured at 37° C. in the presence of 5% CO2 for 5 minutes for activation of CCCP. JC-1 fluorescence was split into red and green, and then the segmented images were converted to grayscale, followed by evaluation using ImageJ software (http://imageJ.nih.gov/ij/).

[3] = tested on: inner hair cells (IHCs) and outer hair cells (OHCs) of the organ of Corti; test: Phalloidin staining of stereocilia / hair cell morphology in organotypic cochlear explants; settings: for relative severity of damage, OHC versus IHC / hair cell morphology / damage after antibiotic treatment: cochlear explants, no BC; for relative severity of damage, OHC versus IHC: 1.2 mM KM or 100 μM GM; for hair cell morphology / damage after antibiotic treatment: 1.2 mM KM, 3 mM AK or 100 μM GM
Protocol: as §1, §2

[4] = tested on: cells of the organ of Corti; test: TUNEL assay of apoptotic DNA fragmentation in cochlear explants; settings: for apoptotic DNA fragmentation / cell death induced by antibiotic: KM, AK, or GM in mouse cochlea, no BC
Protocol: as §1
To detect DNA fragmentation leading to cell death, a TUNEL assay kit (Promega, Madison, WI) was used according to the manufacturer's protocol. Specimens were fixed with 4% paraformaldehyde in PBS for 15 minutes at room temperature (RT) and treated with 0.1% PBS-Tx in 0.1% sodium citrate for 30 minutes at 37° C. Fragmented DNA from cells was stained using TUNEL working solution at 37° C. for 30 minutes. F-actin was labeled with Alexa Fluor 555-conjugated phalloidin in PBS-Tx for 3 hours at room temperature (RT) in the dark and visualized using a Zeiss Axio Imager A2 fluorescence microscope.

[5] = tested on: cleaved caspase-3 in organ of Corti; test: Immunohistochemistry for cleaved (active) caspase-3 in cochlear explants; settings: for level of cleaved caspase-3 after antibiotic treatment: KM, AK, or GM versus untreated controls, no BC
Protocol: as §1
Immunohistochemistry and TUNEL assay for active caspase-3 were used to determine whether cell death in the organ of Corti occurred by apoptosis. Specimens were fixed with 4% PFA, kept permeabilized with 0.1% Triton X-100 in PBS (PBS-Tx) for 30 minutes at room temperature (RT), blocked with 5% normal goat serum for 1 hour at room temperature (RT), and cultured overnight with anti-caspase-3 antibody (1:1,000; Cell Signaling Technology, Bevery, MA) diluted in blocking solution.

[6] = tested on: mitochondrial reactive oxygen species (ROS) in cochlear hair cells; test: MitoSOX Red assay of mitochondrial ROS in cochlear explants
Protocol: as §1
To analyze AK or KM-induced mitochondrial oxidative stress, cochlear explants were examined by MitoSOX Red assay and JC-1 assay. Levels of mitochondrial reactive oxygen species (ROS) were detected by staining with 5 μM MitoSOX Red (Invitrogen-Molecular Probes) for 5 minutes in a humidified atmosphere at 37° C. in the presence of 5% CO2. The specimen was washed with PBS and visualized using a Zeiss Axio Imager A2 fluorescence microscope.

Molecule | IHC survival / cytotoxicity to IHC [1] | red/green fluorescence ratio (mitochondrial membrane potential) after antibiotic treatment ([2]; JC-1) | relative severity of damage, OHC versus IHC [3] | hair cell morphology / damage after antibiotic treatment [3] | apoptotic DNA fragmentation / cell death induced by antibiotic [4] | level of cleaved caspase-3 after antibiotic treatment [5] | decrease of MitoSOX Red fluorescence intensity (mitochondrial ROS) ([6]; BC pretreatment, then KM, AK or GM) | statistical significance of reduced integrated density of red fluorescence ([6]; BC treatment group versus AK, KM, and GM groups) | reduction of antibiotic-induced hair cell damage (surviving hair cells) ([1]; BC pretreatment (0.1 μM for KM, 1 μM for AK and GM), IHC and OHC, apical, middle and basal turns) | cytotoxicity of BC to IHC and OHC ([1]; BC, cochlear explants) | red/green fluorescence ratio (mitochondrial membrane potential) with BC ([2]; BC pretreatment, then KM, AK or GM, JC-1, n=3 per group, *P<0.05 and **P<0.01) | statistical significance of protective effect on mitochondrial membrane potential ([2]; BC pretreatment, then KM, AK or GM, n=3 per group, *P<0.05 and **P<0.01) | protection against stereocilia degeneration and hair cell loss ([3]; 0.1 or 1 μM BC for 1 hour before antibiotic (KM, AK, or GM), apical, middle, basal regions) | reduction of apoptotic DNA fragmentation (TUNEL labeling) ([4]; BC pretreatment compared with KM, AK, or GM treatment) | reduction of cleaved caspase-3 ([5]; BC pre-treatment before antibiotics (KM, AK, GM))
NC[C@H]1O[C@H](O[C@H]2[C@H](O)[C@@H](O[C@H]3O[C@H](CO)[C@@H](O)[C@H](N)[C@H]3O)[C@H](N)C[C@@H]2N)[C@H](O)[C@@H](O)[C@@H]1O [KM, kanamycin] | more resistant | significant decrease in the red/green ratio along with a loss of red signal | more severe in OHC than in IHC | not only altered the ciliary morphology of hair cells but also disrupted cell arrangement, with induction of cell loss in a complex manner | resulted in cell death | significantly increased levels of cleaved caspase-3 compared to untreated controls |  |  |  |  |  |  |  |  | 
gentamicin [GM] | more resistant | significant decrease in the red/green ratio along with a loss of red signal | caused more severe damage to OHCs than IHCs, with loss of hair cells |  | resulted in cell death | significantly increased levels of cleaved caspase-3 compared to untreated controls |  |  |  |  |  |  |  |  | 
COc1ccc2cc3[n+](cc2c1OC)CCc1cc2c(cc1-3)OCO2 [BC, berberine chloride] |  |  |  |  |  |  | significant decrease in fluorescence intensity | statistically significant compared to the AK, KM, and GM groups | antibiotic-induced damage was reduced to near-normal levels | no detrimental effects on IHC or OHC | red/green fluorescence ratio was found to increase | statistically significant | alleviated stereocilia degeneration and hair cell loss in all cochlear regions | significant reduction by BC pretreatment to near control levels | reduced cleaved caspase-3
NCC[C@H](O)C(=O)N[C@@H]1C[C@H](N)[C@@H](O[C@H]2O[C@H](CN)[C@@H](O)[C@H](O)[C@H]2O)[C@H](O)[C@H]1O[C@H]1O[C@H](CO)[C@@H](O)[C@H](N)[C@H]1O [AK, amikacin] | virtually destroyed | significant decrease in the red/green ratio along with a loss of red signal |  | most of their cilia disintegrated and lost, making them unrecognizable | resulted in cell death | significantly increased levels of cleaved caspase-3 compared to untreated controls |  |  |  |  |  |  |  |  | 
